Patent US20250161419A1, “SERPIN PEPTIDES AND METHODS OF USING THE SAME” (SERPIN PHARMA, LLC, priority 2022, published 2025)

Experiments:
NFκB [1] = test: NFκB reporter assay stimulated with LPS (THP1-XBlue-MD2-GD14 reporter cells, SEAP read-out); format: cell-based; conditions: without LPS
NFκB [2] = test: as above; format: cell-based; conditions: peptide 50 μg/ml before LPS 5 ng/ml, overnight
Description: The reporter cells (THP1-XBlue-MD2-GD14 cells) were treated with each peptide (50 μg/ml) before being insulted with LIPS (5 ng/ml) and incubated overnight. The NFκB inducible Secreted Embryonic Alkaline Phosphatase (SEAP) was measured in the supernatant and read for absorbance.

phospho-ERK1/2 = test: Cell signaling analysis in PC12 cells, immunoblot of phospho-ERK1/2; format: cell-based, rat; conditions: SP163M 24 or 240 nM, NGF 0.36 nM, RAP 150 nM pretreatment 15 min
Description: Cell signaling analysis: Rat PC12 cells were purchased from ATCC (CRL-1721). PC12 cells were maintained in high glucose DMEM (Gibco, USA) containing 10% heat-inactivated FBS (Gibco, USA), 5% HyClone heat-inactivated horse serum (Cytiva, USA), penicillin (100 units/ml) and streptomycin ([…]) in 6-well plates that were pre-coated with 0.01 mg/ml type IV collagen (Sigma-Aldrich, St. Louis, MO, USA). Cells were transferred to serum-free medium (SFM) 4 h prior to adding effectors, and then treated with SP163M (2.4, 24 or 240 nM); EI-tPA (12 nM), NGF (0.36 nM), or vehicle (PBS) for 10 min. In some cases, cells were pre-incubated with the competitive antagonist of LRP1, GST-RAP (150 nM) for 15 min or electroporated using the Rat Neuron Nucleofector Amaxa Kit (Lonza Biosciences) and incubated with siRNA to silence LRP1 expression (siLRP1; M-094191-01-0010, Dharmacon) for 48 h. Control cells were transfected with non-targeting control (NTC) siRNA (NTC; D-001810-10-05, Dharmacon). Cells were rinsed with ice-cold PBS and proteins were extracted in RIPA buffer (20 mM sodium phosphate, 150 mM NaCl, pH 7.4, 1% Triton X-100, 0.5% sodium deoxycholate, 0.1% SDS) supplemented with protease and phosphatase inhibitors (Roche Diagnostics, USA). After 30 min on ice, lysates were centrifuged at 15000×g for 5 min, supernatant collected and stored at −20° C. Equal amounts of protein from cell lysates (20 μg), as determined by BCA Protein Assay (ThermoFisher Scientific, Waltham, MA, USA), were subjected to 10% SDS-PAGE and electro-transferred to nitrocellulose membranes. The membranes were blocked with 5% nonfat dried milk and then incubated with primary anti-phospho-AKT (Cell Signaling Technology, Danvers, MA, USA; cat #9271S; 1:1000), anti-phospho-ERK1/2 (Cell Signaling Technology, Danvers, MA, USA; cat #9101S; 1:1000), anti-LRP1 (Cell Signaling Technology, Danvers, MA, USA; cat #64099S; 1:1000) or anti total-ERK1/2 (Cell Signaling Technology, Danvers, MA, USA; cat #91012S; 1:1000). Immunoblots were developed using Radiance, Radiance Q, and Radiance Plus chemiluminescent substrates and imaged using a BioRad ChemiDoc Imaging System (Bio-Rad, Hercules, CA, USA).

[3] = Peptide stability as stated in Example 1 (no method described); format: physicochemical; conditions: stated as explanation of activity; no test described
phospho-STAT6 = test: IL-13 stimulated STAT6 phosphorylation in esophageal EPC2 cells (western blot); format: cell-based, human; conditions: 30 minutes post IL-13 induction
Description: Esophageal EPC2 cells were treated with vehicle (ddw), A1AT or SP163M. Cells were collected at time-points indicated and western blot analysis of phospho-specific STAT6 was analyzed. […] Using CRISPER/CAS9 technology, an LRP1 knockout esophageal EPC2 cell line was created.

| Substance | NFκB activity (NFκB inducible SEAP in supernatant) (NFκB [2]) | other results |
| --- | --- | --- |
| SIPPEVKFNKPFVFLMIEQNTKSPLFMGKVVNP (SIPPEVKFNKPFVFLMIEQNTKSPLFMGKVVNP; SP16 peptide core sequence including the LRP1 binding site; listed as Homo sapiens) [SP8, reference compound] | neither the scrambled core control peptide nor the AAT 0-36 fragment decreased the NFκB activity | NFkB induction by the peptide itself (NFκB [1]): showed NFkB inducible properties without the need for LPS |
| R R R V R F N R P F L M I I R R R (RRRVRFNRPFLMIIRRR) [SP29] | heightened activity |  |
| VRFNRPFLMII [SP28] | lack of function |  |
| NGF: NGF-β purchased from Sigma, cell signaling control [reference compound] |  | activation of phospho-ERK1/2 after 10 min, with or without RAP (phospho-ERK1/2): activated ERK1/2 |
| V R F N R P F L (VRFNRPFL) [SP31] | anti-inflammatory activity of the peptide was lost |  |
| VKFNKPFVFLM (SP16 peptide core sequence including the LRP1 binding site; listed as Homo sapiens) [SP20] | did not have an inhibitory effect | peptide stability [3]: unstable |
| R R R V R F N R P F L R R R (RRRVRFNRPFLRRR) [SP32] | could not be restored with the poly arginine flanks |  |
| R R R L R F N R P F L V V I R R R (RRRLRFNRPFLVVIRRR) [SP26] | heightened activity |  |
| R R R V K F N K P F V F L M R R R (RRRVKFNKPFVFLMRRR; SP16 peptide core sequence including the LRP1 binding site) [SP22] | NFκB activity was significantly reduced |  |
| FPKMVPQFNTELKIFPEVNIK (FPKMVPQFNTELKIFPEVNIK) [SP34, reference compound] | neither the scrambled core control peptide nor the AAT 0-36 fragment decreased the NFκB activity |  |
| LRFNRPFLVVI [SP24] | lack of function |  |
| RRRVKFNKPFVFLMIEQNTKRRR (RRRVKFNKPFVFLMIEQNTKRRR; SP16 peptide core sequence including the LRP1 binding site) [SP21] | NFkB inhibition increased as well relative to SP16 | peptide stability [3]: stability increased |
| A1AT: alpha-1 antitrypsin, the prototypical SERPIN [Peptide A1AT] |  | STAT6 phosphorylation (phospho-STAT6): STAT6 was phosphorylated in vehicle and A1AT treated cells |
